Assays:
Type in all cases: cell-based
human TLR7 = target: T1, human TLR7 (Homo sapiens, UniProt Q9NYK1); experiment: TLR7 inhibition reporter assay (HEK-Blue cells, SEAP reporter, gardiquimod stimulation); settings: HEK-Blue cells overexpressing human TLR7, SEAP reporter, gardiquimod 7.5 μM
T1 construct: host or cells: HEK-Blue cells (HEK293-derived reporter line)
T1 sequence (Q9NYK1 27-1049): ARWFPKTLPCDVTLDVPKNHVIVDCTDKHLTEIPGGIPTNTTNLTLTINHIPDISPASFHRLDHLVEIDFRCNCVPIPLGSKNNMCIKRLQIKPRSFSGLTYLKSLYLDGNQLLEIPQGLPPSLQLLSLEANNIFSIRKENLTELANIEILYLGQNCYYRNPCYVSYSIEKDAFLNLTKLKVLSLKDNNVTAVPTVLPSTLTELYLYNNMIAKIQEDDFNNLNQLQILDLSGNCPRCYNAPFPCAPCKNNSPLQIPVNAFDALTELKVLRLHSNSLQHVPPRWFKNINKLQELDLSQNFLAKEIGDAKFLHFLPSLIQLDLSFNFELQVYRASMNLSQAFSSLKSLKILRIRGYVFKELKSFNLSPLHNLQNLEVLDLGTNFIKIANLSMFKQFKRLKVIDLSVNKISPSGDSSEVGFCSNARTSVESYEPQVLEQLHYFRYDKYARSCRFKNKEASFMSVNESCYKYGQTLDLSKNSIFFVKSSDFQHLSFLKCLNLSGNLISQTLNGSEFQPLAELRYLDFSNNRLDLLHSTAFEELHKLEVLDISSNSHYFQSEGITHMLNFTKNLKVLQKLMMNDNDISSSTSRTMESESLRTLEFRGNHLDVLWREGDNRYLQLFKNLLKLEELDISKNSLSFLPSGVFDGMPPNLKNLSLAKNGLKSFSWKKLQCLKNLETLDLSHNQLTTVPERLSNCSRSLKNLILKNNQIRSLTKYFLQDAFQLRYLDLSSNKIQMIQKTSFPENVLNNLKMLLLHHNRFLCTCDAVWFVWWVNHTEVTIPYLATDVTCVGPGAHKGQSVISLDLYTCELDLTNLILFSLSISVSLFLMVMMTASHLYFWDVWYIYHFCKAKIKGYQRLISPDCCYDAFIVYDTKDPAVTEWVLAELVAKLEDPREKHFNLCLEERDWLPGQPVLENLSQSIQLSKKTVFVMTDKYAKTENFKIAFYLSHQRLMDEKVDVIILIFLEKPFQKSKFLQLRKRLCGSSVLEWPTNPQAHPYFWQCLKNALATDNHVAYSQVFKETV
How it was run: (§1)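 After 22 h at 37 °C, SEAP secretion was measured from human TLR7-, TLR8- or TLR9-expressing HEK-Blue reporter cells given compound (0.05 nM–50 μM) 30 min before agonist: 7.5 μM gardiquimod, 15.9 μM R848 or 5 nM ODN2006 respectively. Percent inhibition referenced to agonist-plus-DMSO and known-inhibitor wells.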

human TLR8 = target: T2, human TLR8 (Homo sapiens, UniProt Q9NR97); experiment: TLR8 inhibition reporter assay (HEK-Blue cells, SEAP reporter, R848 stimulation); settings: HEK-Blue cells overexpressing human TLR8, SEAP reporter, R848 15.9 μM
T2 construct: host or cells: HEK-Blue cells (HEK293-derived reporter line)
T2 sequence (Q9NR97 27-1041): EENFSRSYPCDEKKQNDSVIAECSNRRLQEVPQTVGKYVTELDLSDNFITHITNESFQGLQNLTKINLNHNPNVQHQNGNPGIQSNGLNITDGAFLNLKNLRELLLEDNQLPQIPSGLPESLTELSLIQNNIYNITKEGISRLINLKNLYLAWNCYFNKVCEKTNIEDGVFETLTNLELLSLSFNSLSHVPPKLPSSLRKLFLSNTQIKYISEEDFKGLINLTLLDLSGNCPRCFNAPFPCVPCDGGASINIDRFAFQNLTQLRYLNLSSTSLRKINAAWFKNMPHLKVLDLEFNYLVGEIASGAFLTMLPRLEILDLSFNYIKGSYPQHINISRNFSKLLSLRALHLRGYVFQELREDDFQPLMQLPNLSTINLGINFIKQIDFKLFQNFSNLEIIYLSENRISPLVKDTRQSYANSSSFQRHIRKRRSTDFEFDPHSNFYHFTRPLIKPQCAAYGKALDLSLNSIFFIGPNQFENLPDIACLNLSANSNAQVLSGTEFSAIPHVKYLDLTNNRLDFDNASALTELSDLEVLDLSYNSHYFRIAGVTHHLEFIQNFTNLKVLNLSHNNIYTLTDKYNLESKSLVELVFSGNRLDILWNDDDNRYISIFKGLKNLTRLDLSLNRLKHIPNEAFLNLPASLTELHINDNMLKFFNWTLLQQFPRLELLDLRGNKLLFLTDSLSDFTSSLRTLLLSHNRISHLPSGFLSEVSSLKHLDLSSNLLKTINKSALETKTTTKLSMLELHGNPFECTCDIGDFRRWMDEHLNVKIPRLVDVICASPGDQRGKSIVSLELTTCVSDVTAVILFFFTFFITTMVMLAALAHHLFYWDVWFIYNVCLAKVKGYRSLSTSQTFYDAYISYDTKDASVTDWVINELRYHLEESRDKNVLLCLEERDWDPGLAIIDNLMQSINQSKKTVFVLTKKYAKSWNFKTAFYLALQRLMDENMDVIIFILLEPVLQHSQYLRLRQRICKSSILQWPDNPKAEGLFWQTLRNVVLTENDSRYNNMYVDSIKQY
How it was run: as §1

human TLR9 = target: T3, human TLR9 (Homo sapiens, UniProt Q9NR96); experiment: TLR9 inhibition reporter assay (HEK-Blue cells, SEAP reporter, ODN2006 stimulation); settings: HEK-Blue cells overexpressing human TLR9, SEAP reporter, ODN2006 5 nM
T3 construct: host or cells: HEK-Blue cells (HEK293-derived reporter line)
T3 sequence (Q9NR96 26-1032): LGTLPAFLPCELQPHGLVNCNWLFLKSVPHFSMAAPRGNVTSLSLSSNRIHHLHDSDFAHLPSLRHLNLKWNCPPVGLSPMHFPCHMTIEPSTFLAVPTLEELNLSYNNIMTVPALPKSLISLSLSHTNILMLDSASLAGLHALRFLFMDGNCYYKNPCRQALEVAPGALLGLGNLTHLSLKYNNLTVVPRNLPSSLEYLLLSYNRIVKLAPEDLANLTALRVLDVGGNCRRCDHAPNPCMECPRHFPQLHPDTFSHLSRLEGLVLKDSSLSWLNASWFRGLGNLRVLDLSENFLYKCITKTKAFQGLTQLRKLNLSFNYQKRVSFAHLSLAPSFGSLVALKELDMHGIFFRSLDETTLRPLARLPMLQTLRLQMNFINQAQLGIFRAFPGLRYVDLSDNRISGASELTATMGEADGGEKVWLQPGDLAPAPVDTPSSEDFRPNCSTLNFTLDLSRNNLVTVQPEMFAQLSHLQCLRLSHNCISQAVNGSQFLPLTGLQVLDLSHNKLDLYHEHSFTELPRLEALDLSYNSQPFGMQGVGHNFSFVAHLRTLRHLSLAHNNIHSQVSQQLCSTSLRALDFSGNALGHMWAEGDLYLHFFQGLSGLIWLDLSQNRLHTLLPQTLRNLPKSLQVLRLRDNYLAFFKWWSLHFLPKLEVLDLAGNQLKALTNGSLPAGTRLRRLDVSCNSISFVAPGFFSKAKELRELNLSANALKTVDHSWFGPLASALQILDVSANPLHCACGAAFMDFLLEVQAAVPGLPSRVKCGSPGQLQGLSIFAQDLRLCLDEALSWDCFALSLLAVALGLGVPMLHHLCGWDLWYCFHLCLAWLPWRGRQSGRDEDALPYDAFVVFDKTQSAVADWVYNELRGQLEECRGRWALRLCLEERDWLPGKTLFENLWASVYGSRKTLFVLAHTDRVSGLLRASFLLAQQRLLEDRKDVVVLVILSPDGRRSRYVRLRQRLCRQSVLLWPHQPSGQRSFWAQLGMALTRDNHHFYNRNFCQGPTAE
How it was run: as §1

IC50 (human TLR7) [µM]	IC50 (human TLR8) [µM]	IC50 (human TLR9) [µM]	Structure (SMILES)
< 0.1	< 0.1	0.1 to 1	CCc1c(-c2ccnc3[nH]ncc23)[nH]c2ccc(C3CCN(CCNC)CC3)cc12 [Example 654, 2-(4-(3-ethyl-2-(1H-pyrazolo[3,4-b]pyridin-4-yl)-1H-indol-5-yl)piperidin-1-yl)-N-methylethan-1-amine]
< 0.1	< 0.1	0.1 to 1	CCc1c(-c2ccnc3[nH]ccc23)[nH]c2ccc(C3CCN(C4CCN(C(C)C)CC4)CC3)cc12 [Example 850, 4-(3-ethyl-5-(1′-isopropyl-[1,4′-bipiperidin]-4-yl)-1H-indol-2-yl)-1H-pyrrolo[2,3-b]pyridine]
< 0.1	0.1 to 1	1 to 50	CC(C)c1c(-c2cnc3ncnn3c2)[nH]c2ccc(C3CCN(C(=O)CN(C)C)CC3)cc12 [Example 554, 1-(4-(2-([1,2,4]triazolo[1,5-a]pyrimidin-6-yl)-3-isopropyl-1H-indol-5-yl)piperidin-1-yl)-2-(dimethylamino)ethan-1-one]
0.1 to 1	0.1 to 1	0.1 to 1	CC(C)c1c(-c2cnc3[nH]ccc3c2)[nH]c2ccc(C3CCN(C4CCN(C)CC4)CC3)cc12 [Example 802, 5-(3-isopropyl-5-(1′-methyl-[1,4′-bipiperidin]-4-yl)-1H-indol-2-yl)-1H-pyrrolo[2,3-b]pyridine]
1 to 50	1 to 50	0.1 to 1	Cc1c(-c2ncc3cc[nH]c3n2)[nH]c2ccc(C3CCN(C4CCN(C(C)C)CC4)CC3)cc12 [Example 809, 2-(5-(1′-isopropyl-[1,4′-bipiperidin]-4-yl)-3-methyl-1H-indol-2-yl)-7H-pyrrolo[2,3-d]pyrimidine]

The next lines start with the molecule.

Structure (SMILES)	IC50 (human TLR7) [µM]	IC50 (human TLR8) [µM]	IC50 (human TLR9) [µM]
CCc1c(-c2ccnc3[nH]ncc23)[nH]c2ccc(C3CCNCC3F)cc12 (stereo not drawn) [Example 173, 4-(3-ethyl-5-(3-fluoropiperidin-4-yl)-1H-indol-2-yl)-1H-pyrazolo[3,4-b]pyridine]	0.1 to 1	< 0.1	1 to 50
CNc1c[nH]c2nccc(-c3[nH]c4ccc(C5CCNCC5)cc4c3C)c12 [Example 210, N-methyl-4-(3-methyl-5-(piperidin-4-yl)-1H-indol-2-yl)-1H-pyrrolo[2,3-b]pyridin-3-amine]	1 to 50	1 to 50	1 to 50
COc1cc(-c2[nH]c3ccc(C4CCN(CC(=O)N(C)C)CC4)cc3c2C(C)C)nn2ncnc12 [Example 283, 2-(4-(3-isopropyl-2-(8-methoxy-[1,2,4]triazolo[1,5-b]pyridazin-6-yl)-1H-indol-5-yl)piperidin-1-yl)-N,N-dimethylacetamide]	< 0.1	0.1 to 1	1 to 50
CC(C)c1c(-c2coc3cccnc23)[nH]c2ccc(C3CCNCC3)cc12 [Example 20, 3-(3-isopropyl-5-(piperidin-4-yl)-1H-indol-2-yl)furo[3,2-b] pyridine]	> 3.13	> 3.13	1 to 50
Cc1cc2nccn2cc1-c1[nH]c2ccc(C3CCN(CC(=O)N(C)C)CC3)cc2c1C(C)C [Example 431, 2-(4-(3-isopropyl-2-(7-methylimidazo[1,2-a]pyridin-6-yl)-1H-indol-5-yl)piperidin-1-yl)-N,N-dimethylacetamide]	< 0.1	0.1 to 1	1 to 50
Cc1c(-c2[nH]c3ccc(C4CCN(CC(=O)N(C)C)CC4)cc3c2C(C)C)nn2ncnc2c1C [Example 280, 2-(4-(2-(7,8-dimethyl-[1,2,4]triazolo[1,5-b]pyridazin-6-yl)-3-isopropyl-1H-indol-5-yl)piperidin-1-yl)-N,N-dimethylacetamide]	< 0.1	< 0.1	1 to 50
CCc1c(-c2ccnc3c(N)noc23)[nH]c2ccc(C3CCNCC3)cc12 [Example 239, 7-(3-ethyl-5-(piperidin-4-yl)-1H-indol-2-yl)isoxazolo[4,5-b]pyridin-3-amine]	1 to 50	0.1 to 1	0.1 to 1
CC(C)c1c(-c2cc3cn[nH]c3cn2)[nH]c2ccc(C3CCNCC3)cc12 [Example 179, 5-(3-isopropyl-5-(piperidin-4-yl)-1H-indol-2-yl)-1H-pyrazolo[3,4-c]pyridine]	< 0.1	< 0.1	1 to 50
CC(C)c1c(-c2cn(C)c3c(=O)n(C)ccc23)[nH]c2ccc(C3CCN(CC(=O)N(C)C)CC3)cc12 [Example 297, 2-(4-(2-(1,6-dimethyl-7-oxo-6,7-dihydro-1H-pyrrolo[2,3-c]pyridin-3-yl)-3-isopropyl-1H-indol-5-yl)piperidin-1-yl)-N,N-dimethylacetamide]	< 0.1	< 0.1	1 to 50
Cc1cc(-c2[nH]c3ccc(C4CCN(C(=O)CN5CC6(COC6)C5)CC4)cc3c2C(C)C)cn2nnnc12 [Example 471, 1-(4-(3-isopropyl-2-(8-methyltetrazolo[1,5-a]pyridin-6-yl)-1H-indol-5-yl)piperidin-1-yl)-2-(2-oxa-6-azaspiro[3.3]heptan-6-yl)ethan-1-one]	< 0.1	< 0.1	1 to 50
